# Literature values as cited in patent US5986061A (priority 1995, dated 1999).
# T1: Hu-IFN-α/β receptor on bovine MDBK cells (Bos taurus, UniProt Q04790+Q95141)
# T1 construct: endogenous in cells; host or cells: MDBK
# T1 sequence (Q04790 25-560): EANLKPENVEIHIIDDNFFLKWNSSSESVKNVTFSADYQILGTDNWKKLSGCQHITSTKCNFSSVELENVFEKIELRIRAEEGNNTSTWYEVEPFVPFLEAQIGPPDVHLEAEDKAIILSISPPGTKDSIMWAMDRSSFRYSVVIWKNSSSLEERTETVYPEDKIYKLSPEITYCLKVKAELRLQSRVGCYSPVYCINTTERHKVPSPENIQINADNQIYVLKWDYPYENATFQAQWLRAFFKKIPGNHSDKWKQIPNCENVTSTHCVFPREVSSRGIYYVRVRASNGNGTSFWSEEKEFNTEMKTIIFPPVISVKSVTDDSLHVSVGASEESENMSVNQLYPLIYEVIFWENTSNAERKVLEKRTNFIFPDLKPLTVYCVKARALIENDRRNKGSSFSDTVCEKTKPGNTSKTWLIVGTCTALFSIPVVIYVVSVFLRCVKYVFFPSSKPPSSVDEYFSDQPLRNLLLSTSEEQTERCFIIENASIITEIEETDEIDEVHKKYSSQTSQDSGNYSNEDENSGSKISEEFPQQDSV
# T1 sequence (Q95141 27-530): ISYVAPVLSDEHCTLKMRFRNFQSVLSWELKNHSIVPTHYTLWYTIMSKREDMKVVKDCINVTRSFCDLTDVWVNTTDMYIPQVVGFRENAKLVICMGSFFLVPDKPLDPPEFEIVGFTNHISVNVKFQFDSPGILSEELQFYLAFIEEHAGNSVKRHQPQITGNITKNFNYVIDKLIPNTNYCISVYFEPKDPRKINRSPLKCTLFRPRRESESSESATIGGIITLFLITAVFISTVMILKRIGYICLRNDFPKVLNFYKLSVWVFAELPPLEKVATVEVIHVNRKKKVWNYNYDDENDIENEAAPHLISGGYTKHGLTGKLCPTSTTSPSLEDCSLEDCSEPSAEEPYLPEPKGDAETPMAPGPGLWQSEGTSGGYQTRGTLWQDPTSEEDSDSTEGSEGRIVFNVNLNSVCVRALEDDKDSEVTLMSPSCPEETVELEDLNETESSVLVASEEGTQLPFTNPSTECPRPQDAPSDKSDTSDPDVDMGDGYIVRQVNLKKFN
# B1: Hu-IFN-gamma: human immune (gamma) interferon (protein, UniProt P01579 24-161, looked up)
# Interferon gamma: QDPYVKEAENLKKYFNAGHSDVADNGTLFLGILKNWKEESDRKIMQSQIVSFYFKLFKNFKDDQSIQKSVETIKEDMNVKFFNSNKKKRDDFEKLTNYSVTDLNVQRKAIHELIQVMAELSPAAKTGKRKRSQMLFRG
# Legend:
# [1] = system: vesicular stomatitis virus and bovine MDBK cells; conditions: literature (16, 28, 63); cited from earlier work
# [2] = target: T1, Hu-IFN-α/β receptor on bovine MDBK cells; conditions: literature (16, 28, 63); cited from earlier work
Molecule,antiviral activity on MDBK cell line [1],binding to MDBK cell line [2]
Hu-IFN-gamma: human immune (gamma) interferon,does not,
B1,,does not
